The target in assay [1] is T1, N-acylethanolamine-hydrolyzing acid amidase (Homo sapiens, UniProt Q02083).
T1 sequence (Q02083 whole entry): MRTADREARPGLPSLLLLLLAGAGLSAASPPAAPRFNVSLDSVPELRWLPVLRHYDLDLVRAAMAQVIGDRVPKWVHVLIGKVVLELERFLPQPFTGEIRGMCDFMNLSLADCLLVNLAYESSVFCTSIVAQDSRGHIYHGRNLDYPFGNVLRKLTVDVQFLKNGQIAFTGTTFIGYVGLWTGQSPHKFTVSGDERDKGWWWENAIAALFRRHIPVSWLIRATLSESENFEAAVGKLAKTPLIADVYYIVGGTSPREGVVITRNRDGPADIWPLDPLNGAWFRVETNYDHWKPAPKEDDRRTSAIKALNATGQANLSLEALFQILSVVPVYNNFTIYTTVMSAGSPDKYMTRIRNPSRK
Kind of assay: Fluorogenic Assay: The assay was run in Optiplate 96-wells black plates, in a total reaction volume of 200 μL. NAAA protein preparation (4.0 μg) was pre-incubated for 10 min with various concentrations of test compounds or vehicle control (5% DMSO) in 100 mM citrate/phosphate buffer (pH 4.5) containing 3.0 mM DTT, 0.1% Triton X-100, 0.05% BSA, 150 mM NaCl. N-(4-methyl-2-oxo-chromen-7-yl)-hexadecanamide was used as a substrate (5.0 μM) and the reaction carried over for 30 min at 37° C. The samples were then read in a Perkin Elmer Envision plate reader using an excitation wavelength of 360 nm and emission 460 nm.

Assay [2] deals with T2, N-acylethanolamine-hydrolyzing acid amidase (Rattus norvegicus, UniProt Q5KTC7).
T2 sequence (Q5KTC7 whole entry): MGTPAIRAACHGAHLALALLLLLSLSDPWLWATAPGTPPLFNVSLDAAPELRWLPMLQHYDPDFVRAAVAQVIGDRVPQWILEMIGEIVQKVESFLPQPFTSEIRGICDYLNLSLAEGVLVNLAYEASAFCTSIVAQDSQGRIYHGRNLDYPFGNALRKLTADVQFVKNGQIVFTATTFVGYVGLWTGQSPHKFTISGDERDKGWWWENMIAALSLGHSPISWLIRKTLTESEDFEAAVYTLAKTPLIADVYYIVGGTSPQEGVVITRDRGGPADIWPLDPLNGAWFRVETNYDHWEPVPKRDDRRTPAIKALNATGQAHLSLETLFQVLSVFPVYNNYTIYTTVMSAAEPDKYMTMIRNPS
Kind of assay: Enzymatic Assay: Lysosomal NAAA protein preparation were obtained by homogenizing male Sprague-Dawley rat lungs (Charles River) in 20 mM Tris-HCl buffer pH 7.4 containing 0.32M sucrose. Samples were centrifuged at 800×g for 15 minutes at 4° C. Supernatants were then centrifuged at 12,000 g for 30 minutes at 4° C. Pellets were then resuspended in PBS pH 7.4 and subjected to a freeze/thaw cycle at −80° C. The suspension was finally centrifuged at 105,000×g for 1 hour at 4° C. The supernatant was then used in the enzymatic assay.

Assay [3] has as its target T1, N-acylethanolamine-hydrolyzing acid amidase. Kind of assay: UPLC/MS Assay: NAAA protein preparation (10 ug) was pre-incubated with various concentrations of test compound or vehicle control in 100 mM NaH2PO4, 100 mM Tri Sodium Citrate Dehydrate, 0.1% Triton-X 100, 3 mM DTT, pH 4.5 for 30 min at 37° C. Duplicate samples were then incubated with 50 uM C17:1 10-cis-heptadecenoylethanolamide (Avanti Polar Lipids, Alabaster, Ala. USA) at 37° C. for 30 minutes. The reaction was terminated by the addition of 0.2 mL of cold methanol containing 1 nmol of heptadecanoic acid (NuChek Prep, Elysian, Minn. USA) as internal standard. Samples were then analyzed by UPLC/MS. Heptadecenoic and heptadecanoic acids were eluted on an Acquity UPLC BEH C18 column (50 mm length, 2.1 mm i.d., 1.7 um pore size, Waters) isocratically at 0.5 mL/min for 1.5 min with a solvent mixture of 95% methanol and 5% water, both containing 0.25% Acetic Acid and 5 mM Ammonium Acetate. The column temperature was 40° C. Electrospray ionization was in the negative mode, capillary voltage was 0.5 kV, […], desolvation temperature was 500° C. N2 was used as drying gas at a flow rate of 1000 L/hour and a temperature of 500° C. The [M-H]- ion was monitored in the selected-ion monitoring mode (m/z values: heptadecenoic acid 267.37, heptadecanoic acid 269.37). Calibration curves were generated using commercial heptadecenoic acid (NuCheck Prep). […].

In turn, `CC(C)[C@H]1OC(=O)[C@@H]1NC(=O)OCc1ccc(-c2ccccc2)cc1` (relative stereo) had a concentration for half-maximal inhibition (IC50) in assay [1] of 23 nM.
Still for that read-out and setting: the result for `CC(C)(C)[C@H]1OC(=O)[C@@H]1NC(=O)OCc1ccc(-c2ccccc2)cc1` (relative stereo) reads 465 nM; that for `CC(C)[C@@H]1OC(=O)[C@@H]1NC(=O)OCc1ccc(-c2ccccc2)cc1` (relative stereo), 37 nM; that for `CC[C@H]1OC(=O)[C@@H]1NC(=O)OCc1ccc(-c2ccccc2)cc1` (relative stereo), 6 nM.
In assay [2], `C[C@@H]1OC(=O)[C@@H]1NC(=O)OCc1ccc(-c2ccc(C(F)(F)F)cc2)cc1` registered a half-maximal inhibitory concentration (IC50) of 24 nM.
In assay [1], `CC(C)(C)[C@@H]1OC(=O)[C@@H]1NC(=O)OCc1ccc(-c2ccccc2)cc1` (relative stereo) returned a half-maximal inhibitory concentration (IC50) of 897 nM.
On the same count and under the same terms, the result for `CC[C@@H]1OC(=O)[C@@H]1NC(=O)OCc1ccc(-c2ccccc2)cc1` (relative stereo) reads 15 nM.
With `CC(OC(=O)N[C@H]1C(=O)O[C@H]1C)c1ccc(-c2ccccc2)cc1` (mixture of isomers), the IC50 is 50 nM in assay [2] and 10 nM in assay [3].

Values taken from ChEMBL document CHEMBL3886751, “Disubstituted beta-lactones as inhibitors of N-acylethanolamine acid amidase (NAAA)” (2016).
